Entries after “also recorded” stand apart in the source; their conditions may differ.
Legend:
monocytes [1] = assay: Nanostring myeloid innate immunity array of LPS-stimulated cultured monocytes; assay type: cell-based, mouse; details: 100 nM 9-cis RA added to culture media
Description: (§1) Monocytes were purified from 3 days cultured mouse bone marrow cells using the monocytes isolation kit, according to the manufacturer's instruction (BM, Miltenyi Biotec, Bergisch Gladbach, Germany). 5×10^5 monocytes plated in a 48 well plate were preincubated with 100 nM 9-cisRA for 1 hour followed by stimulation with 0.5 μg/ml LPS for 4 hours for RNA or overnight for cytokines. The total RNA was extracted using an RNeasy® Plus Mimi Kit (Cat No. 74134, QIAGEN GmbH, Hilden, Germany) according to manufacturer's instruction. The RNA and collected supernatants were stored at −80° C. until further use.
This was performed by the Genomic and RNA Profiling Core at Baylor College of Medicine using the NanoString Technologies nCounter Gene Expression Mouse Myeloid Innate Immunity V2 Panel codeset (NS_MM_Myeloid_V2.0) containing 770 unique pairs of 35-50 bp reporter probes and biotin-labeled capture probes, including internal reference controls (NanoString, Seattle, WA) as previously described. (Alam et al., 2021a). Data was analyzed by ROSALIND® (https://rosalind.bio/), with a HyperScale architecture developed by ROSALIND, Inc. (San Diego, CA).

monocytes [2] = assay: Stimulatory activity of conditioned media from LPS-treated monocytes on IL-17 production by γδ T cells; assay type: cell-based, mouse; details: LPS-stimulated cultured monocytes treated with 100 nM 9-cisRA
Description: as §1
(§2) Pooled γ/δ T17 cells from the spleens of 8-10 week old B6 and Pinkie mice were isolated using the TCR γ/δ T cells Isolation Kit according to the manufacturer's instruction (Miltenyi Biotec, Bergisch Gladbach, Germany). To determine the effect of 9CisRA and monocytes conditional media on IL17 cytokine production, the purified γδ T17 cells were stimulated with anti-CD3/CD28 Dynabeads (Catalog #11452D, Life Technologies AS, Norway) alone or in combination with IL-23 (10 ng/ml, eBioscience), 9-cisRA (100 nM) or monocyte conditioned media for 96 hours for cytokine measurement.
(§3) Mouse IL17 was measured from cell cultured supernatant after 96 hours incubation using a mouse IL-17 DuoSet Enzyme-linked immunosorbent assay (ELISA) (R&D systems, Minneapolis, USA)

monocytes [3] = details: 9-cis RA treated monocytes; cited from earlier work
γδ T cells [4] = assay: IL-17A/F in supernatants of stimulated cultured γδ T cells (ELISA); assay type: cell-based, mouse; details: for suppressive effect on supernatant IL-17 concentration: bead+IL-23 stimulated, 100 nM 9-cis RA, 96 hours; for effect on IL-17A/F cytokine concentration in supernatants: C57BL/6 spleen γδ T cells, anti-CD3/CD28 beads plus recombinant IL-23, 10 and 100 nM (FIG. 12)
Description: as §2, §3

γδ T cells [5] = details: stimulated with anti-CD28 antibody and cytokine cocktail of IL-23 and IL-1; cited from earlier work

With `CC1=C(/C=C/C(C)=C\C=C\C(C)=C\C(=O)O)C(C)(C)CCC1` [9-cis RA, 9-cis retinoic acid] the “expression of γδT17 inducing cytokines (Il23a, Il12b, Il1α, Il1β, Tnf-α)” value (monocytes [1]) was “suppressed; also recorded: reduced”, the “expression of γδT17 inducing cytokines (Il23a, Il12b, Il1α, Il1β, Tnf-α)” value (monocytes [1]; listed as 9-cisRA) was “suppresses” and the “stimulatory activity of monocyte conditioned media on γδ T cell IL-17 production” value (monocytes [2]) was “suppresses; also recorded: significantly reduced”. The “stimulatory activity of monocyte conditioned media on γδ T cell IL-17 production” value (monocytes [2]; listed as 9-cisRA) was “significantly reduced”, the “levels of IL-1β and IL-23β in supernatants” value (monocytes [3]) was “reduced levels” and the “suppressive effect on supernatant IL-17 concentration” value (γδ T cells [4]; B6 γδ T cells) was 74%. The “effect on IL-17A/F cytokine concentration in supernatants” value (shortened to “effect … in supernatants”) (γδ T cells [4]) was “suppressive effects”, the “suppressive effect on supernatant IL-17 concentration” value (γδ T cells [4]; Pinkie γδ T cells) was 46% and the “suppression of IL-17 production” value (γδ T cells [4]; cultured γδ T cells stimulated by CD28 beads or beads plus IL-23) was > 70%. For the same compound, the “supernatant IL-17 concentration” value (γδ T cells [4]; stimulated γδ T cells from both strains (B6 and Pinkie), 100 nM) was “suppresses; also recorded: significantly reduced”.

For `CC1(C)CCC(C)(C)c2cc(NC(=O)c3ccc(C(=O)O)cc3)ccc21` [AM80], the “IL-17 production by γδ T cells” value (γδ T cells [5]) is listed as “suppress”.

For `C=C(c1ccc(C(=O)O)cc1)c1cc2c(cc1C)C(C)(C)CCC2(C)C` [Bexarotene], the “effect … in supernatants” value (γδ T cells [4]) was “suppressive effects”.

In the case of `CC/C=C\C/C=C\C/C=C\C/C=C\C/C=C\C/C=C\CCC(=O)O` [DHA, omega-3 docosahexaenoic acid], the “effect … in supernatants” value (γδ T cells [4]) is reported as “suppressive effects”.

In the case of `CN1c2ccc([N+](=O)[O-])cc2N=C(c2ccc(C(=O)O)cc2)c2cc3c(cc21)C(C)(C)CCC3(C)C` [HX531], the “effect on suppressive activity of the RAR agonist ATRA on IL-17A/F” value (γδ T cells [4]; C57BL/6 γδ T cells, anti-CD3/CD28 beads plus IL-23 (FIG. 12)) is reported as “did not have any effect” and the “effect on the suppressive effects of RXRα agonists on IL-17A/F” value (γδ T cells [4]; C57BL/6 γδ T cells, anti-CD3/CD28 beads plus IL-23, with 9-cisRA, Bexarotene, DHA, oleic acid, honokiol (FIG. 12)) is reported as “blocked”.

With `CC1=C(/C=C/C(C)=C/C=C/C(C)=C/C(=O)O)C(C)(C)CCC1` [all trans retinoic acid] the “effect … in supernatants” value (γδ T cells [4]) was “suppressive activity”.

In the case of `C=CCc1ccc(O)c(-c2ccc(O)c(CC=C)c2)c1` [honokiol], the “effect … in supernatants” value (γδ T cells [4]) is reported as “suppressive effects”.

With `CCCCCCCC/C=C\CCCCCCCC(=O)O` [oleic acid] the “effect … in supernatants” value (γδ T cells [4]) was “suppressive effects”.

Reference: US20250073194A1, “RXR AGONISTS IN EYE DISORDERS” (Baylor College of Medicine, priority 2022, published 2025)
